From PubChem BioAssay (NCI)
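Growth conditions: 96-well plates. Treatment: test compound, 48 hours, 5 concentrations. Analysis: linear interpolation between bracketing concentrations; unreached endpoints set to highest concentration. At the GI50, growth is halved. TGI: total growth inhibition.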

Legend:
Assay in all cases: growth of human tumour cells (NCI), 48 h
[1] = test system: HOP-92 NSCLC
[2] = test system: NCI/ADR-RES ovarian
[3] = test system: RXF 393 renal
[4] = test system: COLO 205 colon
[5] = test system: MCF7 breast
[6] = test system: OVCAR-8 ovarian
[7] = test system: OVCAR-4 ovarian
[8] = test system: SN12C renal
[9] = test system: HCT-116 colon
[10] = test system: UACC-257 melanoma

Row | SMILES | TGI [1] [µM] | TGI [2] [µM] | TGI [3] [µM] | TGI [4] [µM] | TGI [5] [µM] | TGI [6] [µM] | TGI [7] [µM] | TGI [8] [µM] | TGI [9] [µM] | TGI [10] [µM] | GI50 [1] [µM] | GI50 [2] [µM] | GI50 [3] [µM] | GI50 [5] [µM] | GI50 [7] [µM] | GI50 [8] [µM] | GI50 [4] [µM] | GI50 [6] [µM] | GI50 [9] [µM] | GI50 [10] [µM]
1 | CCOC(=O)n1cncc1CC(NC(=O)Cc1c(C(=O)C=C(C)C)[nH]c2ccccc12)C(=O)OC (configuration not stated) | 26.4 | > 100 | 28.5 | 41 | 84.1 | 40.2 | 37.9 | 39.5 | > 100 | 28.2 | – | – | – | – | – | – | – | – | – | –
2 | COc1cccc(-c2nc3c(C(=O)NCCN(C)C)cccc3[nH]2)c1 | 46.7 | 44.1 | 56.7 | 23.1 | > 100 | > 58.4 | 84.6 | > 70.6 | 44.2 | 31.3 | – | – | – | – | – | – | – | – | – | –
3 | O=S(=O)(O)c1c(N=Nc2c(O)ccc3ccccc23)ccc2ccccc12 | > 100 | > 100 | > 100 | > 100 | – | > 100 | > 100 | > 100 | > 100 | > 100 | – | – | – | – | – | – | – | – | – | –
4 | Nc1nc(SCc2ccccc2)c2ncn(Cc3ccccc3)c2n1 | > 100 | > 100 | > 100 | > 100 | > 100 | > 100 | > 100 | > 100 | > 100 | > 100 | – | – | – | – | – | – | – | – | – | –
5 | C=C1C(=O)OC2C1C(OC(=O)/C(C)=C/C)CC1(C)C(=O)CCC(=C)C21 (configuration not stated) | 19.9 | 33.8 | 11 | 20.3 | 18 | 29.6 | 30.3 | 4.09 | 31.2 | 28.5 | – | – | – | – | – | – | – | – | – | –
6 | CC1(C)COC(/C=C/C2=NC(C)(C)CO2)=N1 | 84.1 | 84 | 34.5 | 28.6 | 33.1 | 51.6 | 99.5 | 9.89 | 25.9 | > 100 | – | – | – | – | – | – | – | – | – | –
7 | CN(C)Cc1ccc(C(=O)Nc2ccc3ncnc(Nc4ccc(Oc5cccc(F)c5)c(Cl)c4)c3c2)cc1 | 2.44 | 3.45 | 2.99 | – | 3 | – | 3.09 | 2.81 | – | – | 1.09 | 1.67 | 1.5 | 1.54 | 1.53 | 1.44 | – | – | – | –
8 | COC(=O)C1=CC[C@@H]2C(C(=O)O)=CO[C@@H](OC3OC(CO)C(O)C(O)C3O)[C@H]12 (some centres not stated) | > 127 | > 300 | > 300 | > 300 | > 131 | > 300 | > 300 | > 300 | > 300 | > 300 | – | – | – | – | – | – | – | – | – | –
9 | c1ccc2sc(C3(N4CCCCC4)CCCC3)cc2c1 | 25.4 | 24.8 | 30.3 | 19.8 | 21.5 | 24.7 | 23.7 | 33.1 | 19.9 | 29.7 | – | – | – | – | – | – | – | – | – | –
10 | COc1cc(-c2coc3c(OC)c(OC4OC(CO)C(O)C(O)C4O)c(OC)cc3c2=O)cc(OC)c1C (configuration not stated) | 38.4 | 27.4 | 8.85 | > 54.2 | 25.8 | 25.3 | 63.2 | 51.8 | > 100 | > 31.6 | – | – | – | – | – | – | – | – | – | –
11 | CC(=O)OCC1OC(O[C@@H]2c3c(O)c4c(c(O)c3C3=C(NN(c5ccc([N+](=O)[O-])cc5[N+](=O)[O-])[Se]3=O)[C@@]2(C)O)C(=O)c2ccccc2C4=O)C(OC(C)=O)C(OC(C)=O)C1OC(C)=O (some centres not stated) | 2.05 | 3.86 | 3.81 | 0.322 | 0.498 | 0.562 | 0.634 | 0.552 | 0.295 | 1.49 | – | – | – | – | – | – | – | – | – | –
12 | S=C(Nc1ccc(Cl)cc1)Nc1ccc(Cl)cc1 (tested in a mixture with another compound) | 4.56 | 13.9 | 5.29 | 3.42 | 8.09 | > 100 | > 100 | 7.32 | 3.07 | 6.23 | 1.55 | 2.54 | 2.13 | 2.89 | 2.92 | 2.49 | 1.9 | 3.26 | 1.46 | 2.65
13 | [C-]#[O+].[C-]#[O+].[Ir].[O-]c1cccc2cccnc12 | – | – | > 100 | > 100 | – | > 100 | > 100 | > 100 | – | > 100 | – | – | > 100 | – | > 100 | > 100 | > 100 | > 100 | – | > 100
14 | COc1ccc(SC(C)(SC)c2ccccn2)c(OC)n1 (configuration not stated) | > 100 | > 100 | > 100 | > 100 | > 100 | > 100 | > 100 | > 100 | > 100 | > 100 | – | – | – | – | – | – | – | – | – | –
15 | N#C/C=C1\C=CC(O)C(O)C1OC1OC(CO)C(O)C(O)C1O (configuration not stated) | > 100 | > 100 | > 100 | > 100 | > 100 | > 100 | > 100 | > 100 | > 100 | > 100 | – | – | – | – | – | – | – | – | – | –
16 | S=C1N(c2ccc(Cl)cc2)C2=C(N=Nc3ccccc3)C(=Nc3ccccc3S2)N1c1ccccn1 | 49.6 | 33.4 | – | 25.2 | 15.2 | 28.2 | – | 25 | 27.1 | 30.4 | – | – | – | – | – | – | – | – | – | –
17 | O=C1c2ccccc2-c2ccc(N=[N+]([O-])c3ccc4c(c3)C(=O)c3ccccc3-4)cc21 | > 100 | > 100 | > 100 | > 100 | > 100 | > 100 | > 100 | > 100 | > 100 | > 100 | – | – | – | – | – | – | – | – | – | –
18 | O=S(=O)(c1ccc(I)cc1)N(c1ccccc1)S(=O)(=O)C(F)(F)C(F)(F)C(F)(F)C(F)(F)F | 42 | > 100 | 78.6 | > 100 | > 100 | > 100 | 68.1 | > 100 | 44.6 | > 100 | – | – | – | – | – | – | – | – | – | –
19 | CC(C)C(N=Cc1ccccc1O)C(=O)O (configuration not stated) | > 100 | > 100 | – | > 100 | > 100 | > 100 | > 100 | > 100 | > 100 | > 100 | – | – | – | – | – | – | – | – | – | –
20 | CC(O)C(O)C(N)CC=O (configuration not stated) | > 500 | > 500 | > 500 | > 500 | > 500 | > 500 | > 500 | > 500 | > 500 | > 500 | – | – | – | – | – | – | – | – | – | –
21 | O=C(O)C1CC(c2ccccc2)=NN1c1ccccc1 (configuration not stated) | > 100 | > 100 | > 100 | > 100 | > 100 | > 100 | > 100 | > 100 | > 100 | > 100 | – | – | – | – | – | – | – | – | – | –
22 | O=C1/C(=C\c2ccc(-c3ccc(Cl)cc3Cl)o2)SC2N=C(COc3ccc(Cl)cc3)NN12 (configuration not stated) | > 100 | > 100 | 88 | > 100 | > 100 | > 100 | > 100 | > 100 | > 100 | 74.4 | – | – | – | – | – | – | – | – | – | –
23 | Fc1ccc(-c2ccc(-c3nnc(-c4cc(F)c(Cl)cc4Cl)o3)o2)cc1Cl | > 100 | > 100 | > 100 | 42.8 | > 100 | > 100 | > 100 | > 100 | – | > 100 | 38.5 | 35.8 | 48 | 26.8 | 50.9 | 33.3 | 18.8 | 31.9 | – | 46.1
24 | O=S(O)c1cc(Cl)cc(Cl)c1O | – | – | > 100 | – | – | – | > 100 | > 100 | > 100 | > 100 | – | – | – | – | – | – | – | – | – | –
25 | O=C(/C=C/c1ccc(O)cc1)NCCc1ccc(O)cc1 | > 12.5 | > 12.5 | > 12.5 | > 12.5 | > 12.5 | > 12.5 | > 12.5 | > 12.5 | > 12.5 | > 12.5 | – | – | – | – | – | – | – | – | – | –
26 | C[N+]1(C)CCC(C#N)(c2ccccc2)CC1 | > 100 | > 100 | > 100 | > 100 | > 100 | > 100 | > 100 | – | > 100 | > 100 | – | – | – | – | – | – | – | – | – | –
